Test results: US6365610B1, “Ozonide compounds with inhibitory activity for urokinase production and angiogenesis” (Taiho Pharmaceutical Company Ltd., priority 1998, dated 2002)

Columns and labels:
urokinase = assay: Urokinase production inhibition test (HT-1080 culture supernatant urokinase activity); assay type: cell-based, Human; settings: HT-1080 cells
Experimental: This test was conducted substantially according to the method described in Biochem. Biophys. Res. Commun., 142(1), 147-54(1987) as will be described in detail below.
Human fibrosarcoma cells HT-1080 were purchased from American Type Culture Collection (product of Rockville). HT-1080 cells were cultured at 37° C. in a 5% CO2 incubator in RPMI-1640 medium (product of Nissui Seiyaku Co., Ltd.) containing 10% (v/v) of […] bovine fetal serum (product of ATLANTA Biological). The cells were suspended in 0.2% trypsin 2 mM EDTA solution for use in the experiment.
The suspension of HT-1080 cells as adjusted to 1×10^5 cells/ml was placed onto a 96-well flat-bottomed incubation plate dividedly in 200 μl quantities (2×10^4 cells/well) and incubated at 37° C. for 4 hours. The supernatant was thereafter removed and replaced with the same amount of serum-free medium [hereinafter referred to as “serum(−)”], followed by incubation for 20 hours. Subsequently, serum(−) was replaced with 199 μl of serum-containing medium [hereinafter referred to as “serum(+)”], and 1 μl of a sample solution containing an active component of the invention and prepared by dissolving the component in dimethyl sulfoxide (DMSO) was added to serum(+) in the incubation plate, followed by further incubation at 37° C. for 24 hours. The resulting supernatant was removed under suction, serum(−) was added in 200 μl quantities, followed by incubation again for 24 hours, and the supernatant of the culture was collected.
To determine the conditions for measuring urokinase activity in the supernatant, the reaction time and the concentration of a synthetic substrate were investigated using recombinant human urokinase (product of CHROMOGENIX AB) and VLKpA (valylleucyllysyl p-nitroamide, product of Sigma Chemical CO.) serving as the […] at a constant concentration (2.8 μg/ml) of plasminogen. When the culture supernatant of HT-1080 cells was checked for urokinase activity preliminarily, the activity was about 0.02 IU/μl. An urokinase solution with activity of 0.02 IU/μl was reacted with the synthetic substrate of varying concentrations.
A 85 μl portion of the culture supernatant and 15 μl of substrate reaction mixture [427 mM Tris-HCl (pH 8.0), 27 mM EDTA (pH 8.0), 1.5 mM VLKpA, 125 μg/ml plasminogen (product of CHROMOGENIX AB] were mixed together in a 96-well incubation plate and reacted at 37° C. for 30 minutes, and the reaction mixture was checked for absorbance at 405 nm using an immunoreader. The urokinase production inhibition ratio was calculated from the following equation.
Inhibition ratio (%)=(1−T/C)×100
wherein T is the average absorbance of a group given the sample, and C is the average absorbance of a control group.

[1] = test system: fertilized egg chorioallantonic membrane (CAM); assay: Angiogenesis inhibition test, fertilized egg chorioallantonic membrane (CAM) method; assay type: in vivo, hen; settings: scored points over all eggs
Experimental: This experiment was conducted substantially according to the fertilized egg chorioallantonic membrane (abbreviated as CAM) method described in ADVANCES IN CANCER RESEARCH, vol. 43, 175-203. The fertilized hen's eggs (Plymouth Rock breed×white leghorn breed) used were purchased from Gotoh Brooder (Gifu Prefecture) and incubated in an incubator (product of Tokyo Rikagaku Kikai Co., Ltd.) at a humidity of 70% and 37° C.
The air chamber of each egg was located by illuminating the egg and the egg shell was injured with a rotary file at two locations, i.e., an upper portion of the air chamber and a side portion of the egg on day 3, taking the day when the incubation was started as day 0. About 3 ml of the albumen was aspirated through the side hole with a syringe for removal, and the air was removed from the upper portion with a dropper. With the side hole sealed with OpSite (product of Smith and Nephew Ltd.), the air chamber upper portion was injured in the form of a 1 cm square, the egg shell and the egg membrane were removed from the square area, and the opening was sealed with OpSite. The seal was removed from the opening on day 5 to form a window, which was sealed with Tegaderm (product of 3M Health Care Ltd.). A disk is made from 20 μl of 1% gelatin with drying, 20 μl of 0.5% aqueous methyl cellulose solution containing an active component of the invention was applied to the disk to form a superposed layer, and the resulting disk was dried in a clean bench. The Tegaderm seal was removed, the disk was placed at rest on the CAM, and the window was sealed again. The shell was removed from an upper portion of the egg on day 7, and 1 ml of 20% Intralipos (product of Green Cross Co., Ltd.) was injected into the egg under the CAM. The CAM was observed under a surgical microscope and photographed at a magnification of ×4 to ×8.
The effect to inhibit angiogenesis was determined substantially according to the method described in Cancer Lett., 48(2), 157-62(1989). More specifically, a vessel-free region, when found over a distance of at least 2 mm around the methyl cellulose layer, was interpreted as indicating angiogenesis inhibitory activity (+), weak inhibitory activity of less than 2 mm as indicating quasi-positive (±), and no vessel-free region within 2 mm as indicating negative (−). At least six fertilized eggs were used for testing. The angiogenesis inhibition ratio was determined by evaluating (+) as 1 point, (±) as 0.5 point and (−) as 0 point, and calculating the ratio of the points each compound scored for all the eggs used.

[2] = test system: Lewis lung cancer strain (LLC); assay type: in vivo
Experimental: The test animals used were 7-week-old female C57BL/6 mice (Nippon Charles River) weighing 17 to 20 g. A subcutaneous tumor (1.0×10^5 cells) of Lewis lung cancer strain (LLC) was transplanted in the mice, and a suspension of a test compound in an aqueous solution of 3% ethanol and 5% gum arabic was given on day 3 and thereafter. The test compound used was compound 6, which was intraperitoneally administered at a dose of 15 mg/kg every other day. On the other hand, 100 μl of 3% ethanol-5% gum arabic aqueous solution was intraperitoneally given to a control group. The mice were checked for body weight and the major and minor diameters of the primary tumor every other day, and an estimated tumor volume (V) was determined by calculating (minor diameter)^2×(major diameter)÷2. The tumor growth inhibition ratio (%) was calculated from the estimated tumor volume of day 24 after the transplantation using the following equation.
Tumor growth inhibition ratio (%)=(1−Tv/Cv)×100
wherein Tv is the tumor volume (mm^3) of the group given the test compound, and Cv is the tumor volume (mm^3) of the control group.
The tumor was excised from each mouse, fixed with acetone, and checked for the number of lesions metastasized to the lungs to calculate the lung metastasis inhibition ratio (%) from the following equation.
Lung metastasis inhibition ratio (%)=(1−T/C)×100
wherein T is the number of metastatic nodules in the group given the test compound, and C is the number of metastatic nodules in the control group.

[3] = 15 mg/kg intraperitoneally every other day, LLC-bearing mice

| Structure (SMILES) | melting point | urokinase inhibition ratio (%) (urokinase; concentration 3.13 μg/ml) | angiogenesis inhibition ratio (%) ([1]; dosage 40 μg/egg) | also measured |
| --- | --- | --- | --- | --- |
| CC12OOC(c3ccccc3)(O1)c1ccccc1C2c1ccccc1 (stereo not drawn) [Compound 1, 4,5-dihydro-1,5-diphenyl-4-methyl-1,4-epoxy-1H-2,3-benzodioxepin] | 178 to 180 °C | 90.5% | 75% | urokinase inhibition ratio (%) (urokinase; concentration 1.56 μg/ml): 90.0%; angiogenesis inhibition ratio (%) ([1]; dosage 10 μg/egg): 67% |
| COc1ccc(C23OOC(c4ccccc4)(O2)C(C)c2ccccc23)cc1 (stereo not drawn) [Compound 3, 4,5-dihydro-1-p-anisyl-5-methyl-4-phenyl-1,4-epoxy-1H-2,3-benzodioxepin] | 135 to 136 °C | 93.8% | 63% | urokinase inhibition ratio (%) (urokinase; concentration 6.25 μg/ml): 94.4% |
| CC(C)C1c2ccccc2C2(c3ccccc3)OOC1(c1ccccc1)O2 (stereo not drawn) [Compound 4, 4,5-dihydro-1,4-diphenyl-5-isopropyl-1,4-epoxy-1H-2,3-benzodioxepin] | 130 to 132 °C |  |  |  |
| c1ccc(C23OOC(O2)c2cccc4cccc3c24)cc1 (stereo not drawn) [Compound 6, 1-phenyl-1,4-epoxy-1H,4H-naphtho[1,8-de][1,2]dioxepin] |  |  | 100% | urokinase inhibition ratio (%) (urokinase; concentration 50.0 μg/ml): 90.1%; tumor growth inhibition ratio ([2]; 15 mg/kg intraperitoneally every other day from day 3, estimated tumor volume of day 24, subcutaneous LLC in mice): 59.2%; lung metastasis inhibition ratio ([2]; 15 mg/kg intraperitoneally every other day from day 3, number of metastatic nodules in lungs, LLC in mice): 75.8%; death in the mice [2, 3]: no death; reduction in body weight [2, 3]: little or no reduction in body weight |
| c1ccc(C2c3ccccc3C3OC2(c2ccccc2)ON3c2ccccc2)cc1 (stereo not drawn) [Compound 8, 1,2,4,5-tetrahydro-2,4,5-triphenyl-1,4-epoxy-3,2-benzoxazepin] | 155 to 156 °C |  | 56% | urokinase inhibition ratio (%) (urokinase; concentration 25.0 μg/ml): 82.2%; urokinase inhibition ratio (%) (urokinase; concentration 50.0 μg/ml): 93.4% |
| c1ccc(C2c3ccccc3C3(c4ccccc4)OOC2(c2ccccc2)O3)cc1 (stereo not drawn) [Compound 10, 4,5-dihydro-1,4,5-triphenyl-1,4-epoxy-1H-2,3-benzodioxepin] | 171 to 173 °C | 94.1% |  |  |

Further lines, with some results ahead:

| melting point | Structure (SMILES) | urokinase inhibition ratio (%) (urokinase; concentration 3.13 μg/ml) | angiogenesis inhibition ratio (%) ([1]; dosage 40 μg/egg) | also measured |
| --- | --- | --- | --- | --- |
| 139 to 141 °C | Cc1ccc(C23OOC(c4ccccc4)(O2)C(C)c2ccccc23)cc1 (stereo not drawn) [Compound 2, 4,5-dihydro-5-methyl-4-phenyl-1-p-tolyl-1,4-epoxy-1H-2,3-benzodioxepin] |  |  | urokinase inhibition ratio (%) (urokinase; concentration 12.5 μg/ml): 88.3% |
| 127 to 128 °C | CC1c2ccccc2C2(c3ccccc3)OOC1O2 (stereo not drawn) [Compound 9, 4,5-dihydro-5-methyl-1-phenyl-1,4-epoxy-1H-2,3-benzodioxepin] |  |  |  |
| 119 °C | c1ccc(C23Cc4ccccc4C(c4ccccc4)(OO2)O3)cc1 (stereo not drawn) [Compound 11, 4,5-dihydro-1,4-diphenyl-1,4-epoxy-1H-2,3-benzodioxepin] | 91.4% |  |  |
